Assay results taken from patent publication US20250145594A1, “MODULATORS OF THE INTEGRATED STRESS PATHWAY” (Calico Life Sciences LLC, priority 2020, published 2025).

Test system: ATF4 luciferase reporter in HEK293T cells
Assay: ATF4-Luc assay (in vitro model of VWMD)
Format: cell-based, human
Conditions: Homo sapiens, HEK-293T, 7 h, HEK293T cells carrying the ATF4 luciferase reporter, 1 μg/mL tunicamycin, One Glo luminescence
How it was run: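 Tunicamycin (1 μg/mL) stress with co-added compound for 7 hours in HEK293T cells stably carrying an ATF4 5′-UTR–luciferase reporter. EC50 values come from the luminescent signal (One Glo).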

SMILES | EC50 [nM]
O=C(NC12CC(n3cc(OCCCC(F)(F)F)cn3)(C1)C2)[C@H]1CC(O)c2cc(Cl)c(F)cc2O1 (stereo in doubt) [Compound 464, (2R,4R)-6-chloro-7-fluoro-4-hydroxy-N-{3-[4-(4,4,4-trifluorobutoxy)-1H-pyrazol-1-yl]bicyclo[1.1.1]pentan-1-yl}-3,4-dihydro-2H-1-benzopyran-2-carboxamide] | < 10
O=C(N[C@H]1CC[C@H](n2cc(OCCOC(F)(F)F)cn2)CC1)[C@H]1C[C@H](O)c2cc(Cl)ccc2O1 [Compound 447, (2R,4S)-6-chloro-4-hydroxy-N-[(1r,4R)-4-{4-[2-(trifluoromethoxy)ethoxy]-1H-pyrazol-1-yl}cyclohexyl]-3,4-dihydro-2H-1-benzopyran-2-carboxamide] | 50 to 250
O=C(NC12CC(n3cc(OCCCC(F)(F)F)cn3)(C1)C2)[C@H]1C[C@H](O)c2cc(C(F)(F)F)c(F)cc2O1 [Compound 642, (2R,4S)-7-fluoro-4-hydroxy-N-{3-[4-(4,4,4-trifluorobutoxy)-1H-pyrazol-1-yl]bicyclo[1.1.1]pentan-1-yl}-6-(trifluoromethyl)-3,4-dihydro-2H-1-benzopyran-2-carboxamide] | 10 to 50
Cn1nc(C23CC(NC(=O)COc4ccc(Cl)c(F)c4)(C2)C3)cc1O[C@H]1C[C@@H](OC(F)(F)F)C1 [Compound 345, 2-(4-chloro-3-fluorophenoxy)-N-[3-(1-methyl-5-{[cis-3-(trifluoromethoxy)cyclobutyl]oxy}-1H-pyrazol-3-yl)bicyclo[1.1.1]pentan-1-yl]acetamide] | 50 to 250
COc1ccc2nn(C34CC(NC(=O)C5CNc6cc(C(F)(F)F)c(F)cc6O5)(C3)C4)cc2n1 (stereo not shown) [Compound 654, 7-fluoro-N-[3-(5-methoxy-2H-pyrazolo[4,3-b]pyridin-2-yl)bicyclo[1.1.1]pentan-1-yl]-6-(trifluoromethyl)-3,4-dihydro-2H-1,4-benzoxazine-2-carboxamide] | 10 to 50
O=C(NC12CC(n3cc4cc(COCC(F)(F)F)ccc4n3)(C1)C2)[C@H]1C[C@@H](O)c2cc(Cl)c(F)cc2O1 [Compound 651, (2R,4R)-6-chloro-7-fluoro-4-hydroxy-N-(3-{5-[(2,2,2-trifluoroethoxy)methyl]-2H-indazol-2-yl}bicyclo[1.1.1]pentan-1-yl)-3,4-dihydro-2H-1-benzopyran-2-carboxamide] | < 10
O=C(NC12CC(c3ccnc(OCCCOC(F)(F)F)c3)(C1)C2)[C@H]1C[C@@H](O)c2cc(Cl)ccc2O1 [Compound 428, (2R,4R)-6-chloro-4-hydroxy-N-(3-{2-[3-(trifluoromethoxy)propoxy]pyridin-4-yl}bicyclo[1.1.1]pentan-1-yl)-3,4-dihydro-2H-1-benzopyran-2-carboxamide] | < 10
O=C(NC12CC(n3cc4cc(COCC(F)(F)F)ccc4n3)(C1)C2)[C@H]1C[C@@H](O)c2cc(Cl)ccc2O1 [Compound 650, (2R,4R)-6-chloro-4-hydroxy-N-(3-{5-[(2,2,2-trifluoroethoxy)methyl]-2H-indazol-2-yl}bicyclo[1.1.1]pentan-1-yl)-3,4-dihydro-2H-1-benzopyran-2-carboxamide] | < 10
O=C(NC12CC(n3cc(-c4ccc(OC(F)(F)F)cn4)cn3)(C1)C2)[C@H]1C[C@H](O)c2cc(Cl)c(F)cc2O1 [Compound 476, (2R,4S)-6-chloro-7-fluoro-4-hydroxy-N-(3-{4-[5-(trifluoromethoxy)pyridin-2-yl]-1H-pyrazol-1-yl}bicyclo[1.1.1]pentan-1-yl)-3,4-dihydro-2H-1-benzopyran-2-carboxamide] | < 10
O=C(NC12CC(n3cc(-c4ccc(C(F)(F)F)cn4)cn3)(C1)C2)[C@@H]1C[C@@H](O)c2cc(Cl)ccc2O1 [Compound 317, (2S,4R)-6-chloro-4-hydroxy-N-(3-{4-[5-(trifluoromethyl)pyridin-2-yl]-1H-pyrazol-1-yl}bicyclo[1.1.1]pentan-1-yl)-3,4-dihydro-2H-1-benzopyran-2-carboxamide] | 10 to 50
O=C(NC12CC(c3cnc(OCCOC(F)(F)F)o3)(C1)C2)[C@H]1C[C@@H](O)c2cc(Cl)c(F)cc2O1 [Compound 416, (2R,4R)-6-chloro-7-fluoro-4-hydroxy-N-(3-{2-[2-(trifluoromethoxy)ethoxy]-1,3-oxazol-5-yl}bicyclo[1.1.1]pentan-1-yl)-3,4-dihydro-2H-1-benzopyran-2-carboxamide] | < 10
O=C(CO[C@H]1C[C@@H](OC(F)(F)F)C1)NC12CC(NC(=O)[C@H]3C[C@@H](O)c4cc(Cl)ccc4O3)(C1)C2 (racemic) [Compound 114, rac-(2R,4R)-6-chloro-4-hydroxy-N-[3-(2-{[(1s,3s)-3-(trifluoromethoxy)cyclobutyl]oxy}acetamido)bicyclo[1.1.1]pentan-1-yl]-3,4-dihydro-2H-1-benzopyran-2-carboxamide] | < 10
O=C(COc1cc(F)c(Cl)c(Br)c1)N[C@H]1C[C@H]2C[C@@H]1C[C@@H]2NC(=O)CO[C@H]1C[C@@H](OC(F)(F)F)C1 [Compound 381, 2-(3-bromo-4-chloro-5-fluorophenoxy)-N-[(1R,2S,4R,5S)-5-(2-{[cis-3-(trifluoromethoxy)cyclobutyl]oxy}acetamido)bicyclo[2.2.1]heptan-2-yl]acetamide] | 10 to 50
O=C(NC12CC(n3cc(OCCOC(F)(F)F)cn3)(C1)C2)[C@H]1C[C@@H](O)c2cc(F)ccc2O1 [Compound 418, (2R,4R)-6-fluoro-4-hydroxy-N-(3-{4-[2-(trifluoromethoxy)ethoxy]-1H-pyrazol-1-yl}bicyclo[1.1.1]pentan-1-yl)-3,4-dihydro-2H-1-benzopyran-2-carboxamide] | 10 to 50
O=C(NC12CC(n3cc(-c4ccc(C(F)(F)F)cn4)cn3)(C1)C2)[C@H]1C[C@@H](O)c2cc(Cl)ccc2O1 [Compound 364, (2R,4R)-6-chloro-4-hydroxy-N-(3-{4-[5-(trifluoromethyl)pyridin-2-yl]-1H-pyrazol-1-yl}bicyclo[1.1.1]pentan-1-yl)-3,4-dihydro-2H-1-benzopyran-2-carboxamide] | < 10
O=C(NC12CC(n3cc(COCCOC(F)(F)F)nn3)(C1)C2)[C@H]1C[C@@H](O)c2cc(Cl)c(F)cc2O1 [Compound 467, (2R,4R)-6-chloro-7-fluoro-4-hydroxy-N-[3-(4-{[2-(trifluoromethoxy)ethoxy]methyl}-1H-1,2,3-triazol-1-yl)bicyclo[1.1.1]pentan-1-yl]-3,4-dihydro-2H-1-benzopyran-2-carboxamide] | < 10
O=C(NC12CC(c3cn(-c4ccc(OC(F)(F)F)cc4)nn3)(C1)C2)[C@H]1C[C@@H](O)c2cc(Cl)ccc2O1 [Compound 360, (2R,4R)-6-chloro-4-hydroxy-N-(3-{1-[4-(trifluoromethoxy)phenyl]-1H-1,2,3-triazol-4-yl}bicyclo[1.1.1]pentan-1-yl)-3,4-dihydro-2H-1-benzopyran-2-carboxamide] | < 10
O=C(NC12CC(n3cc(O[C@H]4C[C@H](OC(F)(F)F)C4)cn3)(C1)C2)[C@H]1C[C@@H](O)c2cc(Cl)ccc2O1 [Compound 587, (2R,4R)-6-chloro-4-hydroxy-N-[3-(4-{[(1r,3R)-3-(trifluoromethoxy)cyclobutyl]oxy}-1H-pyrazol-1-yl)bicyclo[1.1.1]pentan-1-yl]-3,4-dihydro-2H-1-benzopyran-2-carboxamide] | < 10
O=C(NC12CC(n3cc(C(=O)N4CC[C@H](OC(F)(F)F)C4)cn3)(C1)C2)[C@H]1C[C@@H](O)c2cc(Cl)ccc2O1 [Compound 371, (2R,4R)-6-chloro-4-hydroxy-N-(3-{4-[(3S)-3-(trifluoromethoxy)pyrrolidine-1-carbonyl]-1H-pyrazol-1-yl}bicyclo[1.1.1]pentan-1-yl)-3,4-dihydro-2H-1-benzopyran-2-carboxamide] | < 10
O=C1CC(C(=O)NC23CC(c4nnc([C@H]5C[C@@H](OC(F)(F)F)C5)o4)(C2)C3)Oc2ccc(Cl)cc21 (stereo partly shown) [Compound 151, 6-chloro-4-oxo-N-(3-{5-[(1s,3s)-3-(trifluoromethoxy)cyclobutyl]-1,3,4-oxadiazol-2-yl}bicyclo[1.1.1]pentan-1-yl)-3,4-dihydro-2H-1-benzopyran-2-carboxamide] | 50 to 250
O=C(NC12CC(c3cn([C@H]4C[C@@H](OC(F)(F)F)C4)nn3)(C1)C2)[C@H]1C[C@@H](O)c2cc(Cl)ccc2O1 [Compound 315, (2R,4R)-6-chloro-4-hydroxy-N-(3-{1-[cis-3-(trifluoromethoxy)cyclobutyl]-1H-1,2,3-triazol-4-yl}bicyclo[1.1.1]pentan-1-yl)-3,4-dihydro-2H-1-benzopyran-2-carboxamide] | 10 to 50
O=C(NC12CC(n3cc(C[C@H]4C[C@H](OC(F)(F)F)C4)cn3)(C1)C2)[C@H]1C[C@@H](O)c2cc(Cl)c(F)cc2O1 [Compound 530, (2R,4R)-6-chloro-7-fluoro-4-hydroxy-N-[3-(4-{[(1r,3S)-3-(trifluoromethoxy)cyclobutyl]methyl}-1H-pyrazol-1-yl)bicyclo[1.1.1]pentan-1-yl]-3,4-dihydro-2H-1-benzopyran-2-carboxamide] | 10 to 50
O=C(COc1ccc(Cl)c(F)c1)NC12CC(n3cc(CCCOC(F)(F)F)cn3)(C1)C2 [Compound 613, 2-(4-chloro-3-fluorophenoxy)-N-(3-{4-[3-(trifluoromethoxy)propyl]-1H-pyrazol-1-yl}bicyclo[1.1.1]pentan-1-yl)acetamide] | 10 to 50
O=C(COc1ccc(Cl)c(Cl)c1)NC12CC(n3cc(C(=O)N4CC[C@H](OC(F)(F)F)C4)cn3)(C1)C2 [Compound 606, 2-(3,4-dichlorophenoxy)-N-(3-{4-[(3S)-3-(trifluoromethoxy)pyrrolidine-1-carbonyl]-1H-pyrazol-1-yl}bicyclo[1.1.1]pentan-1-yl)acetamide] | < 10
O=C(COc1ccc(Cl)c(F)c1)NC12CC(n3cc(C(=O)N[C@H]4C[C@@H](OC(F)(F)F)C4)cn3)(C1)C2 [Compound 362, 1-{3-[2-(4-chloro-3-fluorophenoxy)acetamido]bicyclo[1.1.1]pentan-1-yl}-N-[cis-3-(trifluoromethoxy)cyclobutyl]-1H-pyrazole-4-carboxamide] | 50 to 250
